In paper PMC2397535 (Breast Cancer Research : BCR, 2008):

What was measured:
MDA-MB-231 = test: antiproliferative effect (GI50), breast cancer cell line; type: cell-based; settings: Homo sapiens
HSP90-p23 complex = HSP90-p23 complex (Homo sapiens, UniProt P07900)
Protocol: For immunoprecipitation, 300 μg of total protein was immunoprecipitated with 5 μg of rat anti-HSP90α monoclonal antibody (SPA-840, clone 9D2, isotype: IgG2a; Assay Designs, Inc.). Proteins were resolved by 12% SDS-PAGE and transferred to PVDF membranes.

BT20 = test: antiproliferative effect (GI50), breast cancer cell line; type: cell-based; settings: Homo sapiens, BT-20
MDA-MB-157 = test: as above; type: cell-based; settings: Homo sapiens
MCF-7 = test: as above; type: cell-based; settings: Homo sapiens, MCF7
BT-474 = test: as above; type: cell-based; settings: Homo sapiens
SkBr3 = test: as above; type: cell-based; settings: Homo sapiens, SK-BR-3
MDA-MB-468 = test: as above; type: cell-based; settings: Homo sapiens

C=CCNC1=C2C[C@@H](C)C[C@H](OC)[C@H](O)[C@@H](C)/C=C(\C)[C@H](OC(N)=O)[C@@H](OC)/C=C\C=C(/C)C(=O)NC(=CC1=O)C2=O [17-AAG, 17-allylamino-17-demethoxygeldanamycin, reference compound]
GI50 (MDA-MB-231): 2060 nM
amount of HSP90α co-immunoprecipitating with p23 (HSP90-p23 complex): concentration-dependent decrease
time to complete HSP90-p23 dissociation (full inhibition) (HSP90-p23 complex): ≤ 15 min
GI50 (BT20): 18.9 ± 4.8 nM
GI50 (MDA-MB-157): 29.5 ± 20.8 nM
GI50 (MCF-7): 69 ± 18.3 nM
GI50 (BT-474): 17.4 ± 5.2 nM
GI50 (SkBr3): 11.9 ± 8 nM
GI50 (MDA-MB-468): 1660 nM
